Tests used:
[1] = tested on: SARS Coronavirus 2 recombinant with NanoLuc (SARS-CoV2-NLuc) in A549-hACE2 cells; test: organism not typed; format: cell-based; conditions: 48 h; read-out: SARS-CoV2 EC50
[2] = tested on: Respiratory syncytial virus recombinant with luciferase (RSV-Luc5) in Normal Human Bronchial Epithelial (NHBE) cells; test: microbe, parasite or virus in culture; format: cell-based; conditions: 72 h, read-out: RSV NHBE EC50
[3] = CC50 MT4 cytotoxicity (Cell-Titer Glo); format: cell-based; conditions: human
Experimental: Cytotoxicity of the compounds was determined in uninfected cells using the cell viability reagent in a similar fashion as described before for other cell types (Cihlar et al., Antimicrob Agents Chemother. 2008, 52(2):655-65). HEp-2 (1.5×10^3 cells/well) and MT-4 (2×10^3 cells/well) cells were plated in 384-well plates and incubated with the appropriate medium containing 3-fold serially diluted compound ranging from 15 nM to 100,000 nM. Cells were cultured for 4-5 days at 37° C. Following the incubation, the cells were allowed to equilibrate to 25° C., and cell viability was determined by adding Cell-Titer Glo viability reagent. The mixture was incubated for 10 min, and the luminescence signal was quantified using an Envision plate reader. Untreated cell and cells treated at 2 μM puromycin (Sigma, St. Louis, MO) serve as 100% and 0% cell viability control, respectively. The percent of cell viability was calculated for each tested compound concentration relative to the 0% and 100% controls and the CCso value was determined by non-linear regression as a compound concentration reducing the cell viability by 50%.

[4] = GI S9 stability - no PMSF; format: in vitro ADME; conditions: pH 7.4; human intestinal S9, PMSF-free; read-out: GIS9-HUMAN-NoPMSF T1/2
Experimental: Duplicate aliquots of test compound or positive control substrate (GS-7340) were added to S9 stock diluted with 100 mM phosphate buffered saline, pH 7.4, to obtain a protein concentration of 1.0 mg/mL. The S9 metabolic reactions were initiated by the addition of the substrates to the S9 reaction mixture to a final concentration of 2 μM. At 0, 10, 20, 30, 60 and 120 min, […] aliquots of the reaction mixture were transferred to plates containing […] of IS/Q solution. After quenching, the plates were centrifuged at 3000 g for 30 minutes, and 150 μL aliquots of each supernatant were diluted with 150 μL water. Aliquots ([…]) of the diluted supernatant were analyzed on a Thermo Q-Exactive mass spectrometer as described below. GI S9 Stability—No phenylmethylsulfonyl fluoride (PMSF): Similar to the procedure described above, test compounds were incubated at 2 μM with 1 mg/mL PMSF-free Intestinal S9 fractions. Samples are removed at 6 time points over the course of a 120 min experiment and the parent compound disappreance and reference compound A formation is determined by mass spectrometry.
Example K: Liquid Chromatography/Mass Spectroscopy Methods for S9 and Plasma Stability
Quantification of test compounds, Reference Compound A (S9 stability assay nucleoside metabolite), and controls was performed by analyte/internal standard peak area ratio (PAR) values measured on a Thermo Q-Exactive mass spectrometer coupled to a Dionex UltiMate 3000 HPLC with a Leap Technologies HTC PAL autosampler. The column used for analysis of test compounds and Reference Compound A was a Waters Acquity BEH C18 ([…] particle size, 2.1′50 mm). The column used for control (GS-7340) was a Thermo Hypersil GOLD ([…] particle size, 2.1′50 mm). Mobile phase A consisted of 0.1% (v/v) formic acid in water. Mobile phase B consisted of 0.1% (v/v) formic acid in acetonitrile. Elution of analytes was achieved by a series of linear gradients of acetonitrile in water containing 0.1°(v/v) formic acid. The mass spectrometer was calibrated on a weekly basis and mass tolerance of 5 ppm was used.

Plasma stability = format: in vitro ADME; set-up: unit not given here; conditions: 37° C., 2 μM substrate
Experimental: At 0.05, 0.5, 1, 2, 3 and 4 hr, […] aliquots of the reaction mixture were transferred to plates containing […] of IS/Q quenching solution. After quenching, the plates were centrifuged at 3000 g for 30 minutes, and 150 μL supernatant was diluted with 150 μL water. Aliquots ([…]) of the diluted supernatant were analyzed on a Thermo Q-Exactive mass spectrometer as described below.
Mobile phase A consisted of 0.1% (v/v) formic acid in water. Mobile phase B consisted of 0.1% (v/v) formic acid in acetonitrile. Elution of analytes was achieved by a series of linear gradients of acetonitrile in water containing 0.1°(v/v) formic acid. The mass spectrometer was calibrated on a weekly basis and mass tolerance of 5 ppm was used.

[5] = tested on: Caco-2 cells (clone C2BBe1); test: CACO-2 permeability; format: in vitro ADME; set-up: unit not given here; conditions: for DM Caco2 A to B: apical to basolateral, donor pH 6.5, receiver pH 7.4; for DM Caco2 B to A: basolateral to apical
Experimental: Pre-plated Caco-2 cells (clone C2BBel) were obtained from Sigma-Aldrich, Inc. (Atlanta, GA). Cell monolayers were grown to confluence on collagen-coated, microporous, polycarbonate membranes in 24-well transwell plates for 21 days. The permeability assay buffer in donor wells was Hanks' balanced salt solution (HBSS) containing 10 mM HEPES and 15 mM glucose at a pH of 6.5 containing 200 μM BNPP. The receiver wells used HBSS buffer containing 10 mM HEPES and 15 mM glucose at a pH of 7.4 and supplemented with 1°% BSA. After an initial equilibration with transport buffer, TEER values were read to test membrane integrity. The experiment was started by the addition of buffers containing test compounds, 200 μl and 1000 μl in the apical and basolateral chamber, respectively. At 0- and 2-hour post dose, 10 μL was sampled from donor compartment and was immediately diluted in 190 μL of 20% methanol. At 1 and 2 hours post dose, 100 μl of solution was taken from the receiver compartments and was immediately diluted in 100 μl of 20% methanol. Removed buffer was replaced with fresh buffer and a correction was applied to all calculations for the removed material. Each compound was tested in 2 separate replicate wells for each condition. All samples were then extracted with 400 μl 100% acetonitrile with internal standard to precipitate protein. Cells were dosed on the apical or basolateral side to determine forward (A to B) and reverse (B to A) permeability. To test for non-specific binding and compound instability, the total amount of drug was quantitated at the end of the experiment and compared to the material present in the original dosing solution as a percent recovery. […] Samples were analyzed by LC-MS/MS.

Row | SMILES | EC50 [1] | EC50 [2] | CC50 [3] | half-life at 2 µM [4] | STA Human Plasma 37 (Plasma stability) | DM Caco2 A to B [5] | DM Caco2 B to A [5]
1 | CC(C)OC(=O)OC[C@H]1O[C@@](C#N)(c2ccc3c(NC(=O)OC(C)(C)C)ncnn23)[C@H](OC(=O)OC(C)C)[C@@H]1OC(=O)OC(C)C [Compound 80, tert-butyl (7-((2R,3R,4R,5R)-2-cyano-3,4-bis((isopropoxycarbonyl)oxy)-5-(((isopropoxycarbonyl)oxy)methyl)tetrahydrofuran-2-yl)pyrrolo[2,1-f][1,2,4]triazin-4-yl)carbamate] | > 50 µM | 2.04 µM | > 50 µM | 0.847 min | 604.23 | 1.35 | 0.95
2 | Cc1ccc(C(C)C)c(OC(=O)OC[C@H]2O[C@@](C#N)(c3ccc4c(N)ncnn34)[C@H](O)[C@@H]2O)c1 [Compound 82, ((2R,3S,4R,5R)-5-(4-aminopyrrolo[2,1-f][1,2,4]triazin-7-yl)-5-cyano-3,4-dihydroxytetrahydrofuran-2-yl)methyl (2-isopropyl-5-methylphenyl) carbonate] | 1.55 µM | 2.41 µM | > 50 µM | 2 min | 193.22 | 2.73 | 20.67
3 | CC(C)[C@@H]1CC[C@@H](C)C[C@H]1OC(=O)OC[C@H]1O[C@@](C#N)(c2ccc3c(N)ncnn23)[C@H](O)[C@@H]1O [Compound 83, ((2R,3S,4R,5R)-5-(4-aminopyrrolo[2,1-f][1,2,4]triazin-7-yl)-5-cyano-3,4-dihydroxytetrahydrofuran-2-yl)methyl ((1R,2S,5R)-2-isopropyl-5-methylcyclohexyl) carbonate] | 24.5 µM | 2.32 µM | 21 µM | 12.1 min | 1584 | 5.3 | 25.42
4 | CC(C)OC(=O)OC[C@H]1O[C@@](C#N)(c2ccc3c(N)ncnn23)[C@H](O)[C@@H]1OC(=O)CCCCCCC(=O)O [Compound 130, 8-(((2R,3S,4R,5R)-5-(4-aminopyrrolo[2,1-f][1,2,4]triazin-7-yl)-5-cyano-4-hydroxy-2-(((isopropoxycarbonyl)oxy)methyl)tetrahydrofuran-3-yl)oxy)-8-oxooctanoic acid] | 9.04 µM | 2.96 µM | > 50 µM | 1.59 min | 409.28 | 0.12 | 2.54
5 | CCOC(=O)OC[C@H]1O[C@@](C#N)(c2ccc3c(NC(=O)OCc4ccccc4)ncnn23)[C@H](O)[C@@H]1O [Compound 131, benzyl (7-((2R,3R,4S,5R)-2-cyano-5-(((ethoxycarbonyl)oxy)methyl)-3,4-dihydroxytetrahydrofuran-2-yl)pyrrolo[2,1-f][1,2,4]triazin-4-yl)carbamate] | 8.26 µM | 4.79 µM | > 50 µM | 2.64 min | 150.92 | 2.01 | 15.52
6 | CCOC(=O)OC[C@H]1O[C@@](C#N)(c2ccc3c(N)ncnn23)[C@@H]2OC(CC)O[C@@H]21 (stereo partly drawn) [Compound 132, ((3aR,4R,6R,6aR)-6-(4-aminopyrrolo[2,1-f][1,2,4]triazin-7-yl)-6-cyano-2-ethyltetrahydrofuro[3,4-d][1,3]dioxol-4-yl)methyl ethyl carbonate] | > 50 µM | > 50 µM | > 50 µM | 0.624 min | 12.304 | 12.34 | 13.86
7 | COC(=O)O[C@H]1[C@@H](OC(=O)OC)[C@](C#N)(c2ccc3c(N)ncnn23)O[C@@H]1COC(=O)OC(C)C [Compound 135, (2R,3R,4R,5R)-2-(4-aminopyrrolo[2,1-f][1,2,4]triazin-7-yl)-2-cyano-5-(((isopropoxycarbonyl)oxy)methyl)tetrahydrofuran-3,4-diyl dimethyl bis(carbonate)] | > 50 µM | > 50 µM | > 50 µM | 0.653 min | 96.462 | 3.87 | 18.05

Reference: patent US12448383B2, “Compounds and methods for treatment of viral infections” (priority 2022, dated 2025)
